Laboratory results published in US6008230A, “Quinoline compounds as H^+ -ATPases” (Fujisawa Pharmaceutical Co., Ltd., priority 1995, dated 1999).
Where a name gives a salt, the structure may show the parent alone.

What was measured:
[1] = system: PTH-induced bone resorption (calvariae from Wistar rats); experiment: Bone organ culture: inhibition of PTH-induced bone resorption; format: cell-based; settings: 144 h; Wistar rat calvariae; 10^-8 M human PTH (1-34); concentration 1×10^-6 M; six days
Method: Test 2 (Bone organ culture) Test Method […] In control dishes, PTH was not added. Control and PTH control were exposed to an equivalent concentration of the vehicle. Six days later, the concentration of calcium ((Ca]) in the medium was measured by methylxylenol blue method and the percentage of inhibition of PTH-induced bone resorption was calculated according to following formula [formula] Cp: [Ca] in PTH control dishes CD: [Ca] in the test compound dishes C0 : [Ca] in control dishes

[2] = system: vacuolar type H^+ -ATPase; experiment: Inhibition of vacuolar type H^+ -ATPase proton transport; format: biochemical; settings: microsomes from mouse peritoneal macrophages; acridine orange uptake; concentration 1×10^-6 M; pH 7.0
Method: Test 1 (Inhibition of vacuolar type H^+ -ATPase proton transport): Test Method (a) Preparation of microsomes from mouse peritoneal macrophages Seven-week-old male ddY mice were injected intraperitoneally with 2 ml of 3% thioglycolate medium. After 3-5 days, the mice were decapitated, and the peritoneal macrophages were obtained by peritoneal lavage with 5-6 ml of Hanks' balanced salt solution (HBSS). The cells were washed twice with cold HBSS. Vesicles were prepared from the cells, homogenized in a Douncee homogenizer (20 strokes) in 10 ml of 250 mM sucrose, 5 mM Tris, 1 mM EGTA, 1 mM KHCO3 and 1 mM dithiothreitol, pH 7.0, at 4° C. After an initial centrifugation (1000× g for 5 minutes), the supernatant was centrifuged 6000× g for 15 minutes) to remove mitochondria and lysosomes. The supernatant was centrifuged at 42000× g for 30 minutes, and microsomal pellet was collected and stored at -80° C. (b) Measurement of proton transport Proton transport was assayed with a dual-wavelength spectrophotometer by monitering uptake of acridine orange (Reference 540 nm, Measurement 492 nm) [H. C. Blair, J. Cell. Biol., 102, 1164 (1986)] with aliquot of membrane vesicles suspended in […] of assay buffer containing 150 mM KCl, 10 mM bis-tris-propane, 2 mM MgCl2, […], […] oligomycin and test compounds (concentration: 1×10^-6 M), pH 7.0. The reaction was initiated by addition of 1 mM ATP. Results were expressed as the percent of control.

| SMILES | inhibition at 1 µM [1] [%] | Inhibition (%) of vacuolar type H^+ -ATPase proton transport [2] [%] |
| --- | --- | --- |
| C=CCc1cnc2c(NC(=O)c3c(Cl)cccc3Cl)cccc2c1Sc1ncc[nH]1 [28 (dihydrochloride), 8-(2,6-Dichlorobenzoylamino)-4-(imidazol-2-ylthio)-3-allylquinoline] | 100 | 94 |
| Cl.N#Cc1cnc2c(NC(=O)c3c(Cl)cccc3Cl)cccc2c1Cn1ccnc1 [52 (hydrochloride), 3-cyano-8-(2,6-dichlorobenzoylamino)-4-(imidazol-1-ylmethyl)quinoline hydrochloride] | 100 | 100 |
| C=Cc1cnc2c(NC(=O)c3c(Cl)cccc3Cl)cccc2c1CC(=O)NCc1ccccn1 [71-(2), 8-(2,6-dichlorobenzoylamino)-4-[(pyridin-2-ylmethyl)carbamoylmethyl]-3-vinylquinoline] | 100 | 93 |
| O=C(Nc1cccc2c(-n3cccn3)ccnc12)c1c(Cl)cccc1Cl [85-(2) (free), 8-(2,6-Dichlorobenzoylamino)-4-(pyrazol-1-yl)quinoline] | 100 | 97 |
| C#Cc1cnc2c(NC(=O)c3c(Cl)cccc3Cl)cccc2c1 [Example 5, 8-(2,6-dichlorobenzoylamino)-3-ethynylquinoline] | 98 | 100 |
